Results as given in US20050096370A1, “Method for inhibiting tumor angiogenesis and tumor growth” (Bizbiotech Co., Ltd., priority 2003, published 2005).

Tests used:
[1] = test system: HIF-1α and VEGF; assay: HIF-1α and VEGF protein immunoblot of Hep3B xenograft tumor lysates; format: in vivo, nude mice; conditions: Hep3B xenografts, 30 μg/g daily i.p. 2 weeks
Method: Male nude mice were injected subcutaneously in the flank with 5×10^6 viable Hep3B cells. […] After the last treatment, the mice were euthanized, the tumors removed and lysates prepared for immunoblotting.
Male nude mice were injected subcutaneously in the flank with 5×10^6 viable Hep3B cells. […] After the last treatment, the mice were euthanized, the tumors removed and lysates prepared for immunoblotting. Tumor lysates from vehicle-treated mice (C) and from. […] The antigen-antibody-protein A complexes were washed extensively with the lysis buffer, the immunocomplexes were eluted by boiling for 3 minutes in a sample buffer containing 2% SDS and 10 mM dithiothreitol and subjected to SDS-PAGE, and then immunoblotted using a rat anti HIF-1α antibody developed previously (Chun et al., Biochem J 2002 362:71-79). β-actin protein was measured as an internal standard. VEGF in tumor tissue was detected using a mouse monoclonal anti-VEGF (SantaCruz Biotechnology Inc., Santa Cruz, Calif.) at a dilution of 1:1000, followed by incubation with a horseradish peroxidase-conjugated anti-mouse antiseruni (Zymed Laboratories Inc.).

[2] = test system: VEGF; assay: VEGF mRNA RT-PCR in NCI-H87, SiHa, SK-N-MC and Caki-1 cells under hypoxia; format: cell-based, human; conditions: Caki-1 cells, hypoxic, 16 hours
Method: FIG. 5 is an autoradiograph showing mRNA levels of VEGF and β-actin in cancer cells of different origin.
Levels of HIF-1α and β-actin proteins were analyzed by immunoblot analysis using a rabbit anti-HIF-1α antibody or a rabbit anti-p-actin antibody. Proteins were visualized by enhanced chemiluminescence.

[3] = test system: HIF-1-regulated genes (VEGF, aldolase A, and enolase 1); assay: semi-quantitative RT-PCR of HIF-1α and HIF-1-regulated gene mRNA in Hep3B cells; format: cell-based, human; conditions: 16 hours
Method: FIG. 2 is an autoradiograph showing mRNA levels of VEGF, aldolase A, enolase 1, HIF-1α, and β-actin.
Immunoblotting was used to detect HIF-1 protein in cultured cells, as described (Chun et al., Biochem Pharmacol 2001 61:947-954). Cells were centrifuged at 3000 rpm for 5 minutes at VC and then washed twice with ice-cold phosphate buffered saline (PBS). Cells were then resuspended in ten packed cell volumes of alysis buffer consisting of 10 mM Tris, pH 7.4, 130 mM NaCl, 2 mM EDTA, 1% Nonidet P-40, 0.5 mM dithiothreitol, and 0.5 mM phenylmethylsulfonyl fluoride. […] To quantify mRNAs for HIF-1α and HIF-1-regulated genes, we performed a highly sensitive, semi-quantitative reverse transcription-polymerase chain reaction (RT PCR), as described previously (Chun et al., J Cell Sci 2001 114:4051-4061). […] P-actin mRNA was measured as a PCR control. […] To assess whether the VEGF mRNA levels affected levels of VEGF protein secreted into the medium, we measured VEGF protein levels in Hep3B cell-conditioned medium. […] VEGF levels in the conditioned media were quantified by using the Quantikine human VEGF Immunoassay kit (R&D Systems, Minneapolis, Minn.) according to the manufacturer's recommended protocol. The VEGF concentrations were quantified by comparison with a series of VEGF standard samples included in the assay kit. […]

**Q.** Which results are given for OCc1ccc(-c2nn(Cc3ccccc3)c3ccccc23)o1 [YC-1, 3-(5′-hydroxymethyl-2′-furyl)-1-benzylindazole]?
**A.** level of HIF-1α protein expression in tumors versus vehicle [1]: markedly lower; level of VEGF protein expression in tumors versus vehicle [1]: markedly lower; level of VEGF mRNA [2]: dose-dependently inhibited; HIF-1α mRNA level [3]: relatively unchanged; expression of HIF-1-regulated genes (VEGF, aldolase A, and enolase 1) mRNA ([3]; hypoxic): dose dependently decreased
